Reference: ChEMBL document CHEMBL1201862, “PubChem BioAssay data set” (2004)
Activity calls are given as the source filed them.

Key:
[1] = COV362 cell viability loss – plate reader, dry powder, SA12, cytotoxicity control for PAX8 inhibitor project, dose response (AID 743144); format: functional, cell-based
[2] = PAX8-dependent cell viability loss – plate reader, dry powder, dose response (AID 743049); format: functional, cell-based
[3] = target: T1, Serine/threonine-protein phosphatase (Candida dubliniensis (strain CD36 / CBS 7987 / NCPF 3949 / NRRLY-17841) (Yeast), UniProt B9W6M3); experiment: blockers of CaCl2-induced CDRE-lacZ signaling – S. cerevisiae, luminescence, secondary, dose response (AID 2388); format: functional, cell-based;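 further: yeast reporter cells carrying a calcineurin-responsive lacZ construct stimulated with calcium chloride; luminescent beta-galactosidase reporter signal in whole cells rather than isolated phosphatase activity; potency for inhibition where a drop in reporter signal means calcineurin blockade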
T1 sequence (B9W6M3 whole entry): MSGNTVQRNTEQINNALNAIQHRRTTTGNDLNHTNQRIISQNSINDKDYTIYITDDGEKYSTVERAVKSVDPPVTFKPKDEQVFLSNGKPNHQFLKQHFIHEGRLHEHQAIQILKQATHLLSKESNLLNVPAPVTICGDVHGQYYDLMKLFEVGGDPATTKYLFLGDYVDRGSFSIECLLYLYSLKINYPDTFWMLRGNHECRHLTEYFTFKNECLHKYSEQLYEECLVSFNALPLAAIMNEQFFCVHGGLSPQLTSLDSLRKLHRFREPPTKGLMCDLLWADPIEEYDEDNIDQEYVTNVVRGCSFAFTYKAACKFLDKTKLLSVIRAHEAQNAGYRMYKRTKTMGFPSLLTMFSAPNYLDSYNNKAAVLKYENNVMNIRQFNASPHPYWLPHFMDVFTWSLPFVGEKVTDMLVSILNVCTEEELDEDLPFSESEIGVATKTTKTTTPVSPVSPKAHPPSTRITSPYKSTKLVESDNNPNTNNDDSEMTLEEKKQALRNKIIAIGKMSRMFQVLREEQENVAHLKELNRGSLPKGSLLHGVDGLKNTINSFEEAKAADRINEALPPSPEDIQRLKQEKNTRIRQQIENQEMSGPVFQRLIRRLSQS

[4] = loss of viability in HepG2 cells – cell-based, CellTiter-Glo, cherry-picked, cytotoxicity control for Shn3 inhibitor project, dose response (AID 624134); format: functional
[5] = general cell-killing toxicity readout – plate reader, dry powder samples, cytotoxicity control for PAX8 inhibitor project, dose response (AID 743021); format: functional, cell-based
[6] = OVCAR4 cell viability loss – plate reader, dry powder, SA11, cytotoxicity control for PAX8 inhibitor project, dose response (AID 743150); format: functional, cell-based; settings: OVCAR-4
[7] = test system: Jurkat; experiment: SAR Analysis of small molecule inhibitors of T-cell specific antigen receptor-induced NF-kB activation in a Jurkat cell line using a luminescence assay - Set 2. [Related pubchem assays (depositor defined):AID435003, AID435012, AID465]; format: functional, cell-based; settings: Homo sapiens
[8] = microbe, parasite or virus in culture; format: functional; settings: Mycobacterium tuberculosis
[9] = target: T2, Alkaline phosphatase, tissue-nonspecific isozyme (Homo sapiens, UniProt P05186); experiment: activation of tissue-nonspecific alkaline phosphatase – biochemical, TNAP isozyme, human IAP uHTS hits, selectivity assay for human IAP activator project, dose response (AID 488886); format: functional;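 further: potency of compounds raising TNAP activity as a selectivity check on IAP activators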
T2 sequence (P05186 whole entry): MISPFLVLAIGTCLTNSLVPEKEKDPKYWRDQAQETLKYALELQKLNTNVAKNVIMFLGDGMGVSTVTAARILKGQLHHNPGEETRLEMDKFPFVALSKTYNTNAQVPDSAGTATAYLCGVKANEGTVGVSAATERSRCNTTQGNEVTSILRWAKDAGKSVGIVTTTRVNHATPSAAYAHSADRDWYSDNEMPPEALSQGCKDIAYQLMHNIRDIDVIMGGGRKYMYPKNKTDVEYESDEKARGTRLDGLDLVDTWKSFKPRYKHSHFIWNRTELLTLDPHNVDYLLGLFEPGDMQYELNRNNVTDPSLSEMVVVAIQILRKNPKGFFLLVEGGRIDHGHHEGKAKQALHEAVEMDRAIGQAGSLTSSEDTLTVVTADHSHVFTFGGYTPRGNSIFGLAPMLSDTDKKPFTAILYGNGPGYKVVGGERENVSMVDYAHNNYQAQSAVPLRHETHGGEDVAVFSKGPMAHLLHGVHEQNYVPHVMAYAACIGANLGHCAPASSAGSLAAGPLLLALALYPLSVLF

In the case of `CCCCC(=O)NC(c1ccccc1)c1ccc2cccnc2c1O` (centres undefined), the AC50 [1] is reported as 3.28 µM (active), the AC50 [2] is reported as 9.11 µM (active) and the EC50 [3] is reported as > 180 µM (inactive). The AC50 [4] was 2.44 µM (active), the AC50 [5] was 63.3 µM (active) and the AC50 [6] was 9.22 µM (active). The IC50 [7] was 5.62 µM (active).

For `CC(=O)N(Cc1ccc(F)cc1)C1=C(NCCc2ccccc2)C(=O)c2ccccc2C1=O`, the CC50 [8] was 10.9 µM (active).

For `O=C(/C=C/c1cccs1)NC(=S)NNC(=O)c1ccccc1O`, the EC50 [9] was 11.8 µM (active).
